Measured values: PubChem BioAssay (NCI)
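Interpolation was linear, between the two tested concentrations surrounding the appropriate level; five concentrations were tested over 48 hours in 96-well plates. The concentration for full growth arrest is given as TGI.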

Tests used:
Assay in all cases: DTP human tumour cell line panel, 48 h
786-0 renal = system: 786-0 renal
A498 renal = system: A498 renal
A549 NSCLC = system: A549 NSCLC
ACHN renal = system: ACHN renal
CAKI-1 renal = system: CAKI-1 renal
CCRF-CEM leukemia = system: CCRF-CEM leukemia
COLO 205 colon = system: COLO 205 colon
DLD-1 colon = system: DLD-1 colon
DMS 114 small cell lung = system: DMS 114 small cell lung
DMS 273 small cell lung = system: DMS 273 small cell lung
EKVX NSCLC = system: EKVX NSCLC
HCC-2998 colon = system: HCC-2998 colon
HCT-116 colon = system: HCT-116 colon
HCT-15 colon = system: HCT-15 colon
HL-60(TB) leukemia = system: HL-60(TB) leukemia
HOP-18 NSCLC = system: HOP-18 NSCLC
HOP-62 NSCLC = system: HOP-62 NSCLC
HT29 colon = system: HT29 colon
IGROV1 ovarian = system: IGROV1 ovarian
K-562 leukemia = system: K-562 leukemia
KM12 colon = system: KM12 colon
KM20L2 colon = system: KM20L2 colon
LXFL 529 NSCLC = system: LXFL 529 NSCLC
M14 melanoma = system: M14 melanoma
M19-MEL melanoma = system: M19-MEL melanoma
MOLT-4 leukemia = system: MOLT-4 leukemia
NCI-H23 lung = system: NCI-H23 lung
NCI-H460 lung = system: NCI-H460 lung
OVCAR-3 ovarian = system: OVCAR-3 ovarian
OVCAR-4 ovarian = system: OVCAR-4 ovarian
OVCAR-8 ovarian = system: OVCAR-8 ovarian
RXF 393 renal = system: RXF 393 renal
RXF-631 renal = system: RXF-631 renal
SF-295 CNS = system: SF-295 CNS
SF-539 CNS = system: SF-539 CNS
SK-MEL-2 melanoma = system: SK-MEL-2 melanoma
SK-MEL-28 melanoma = system: SK-MEL-28 melanoma
SK-OV-3 ovarian = system: SK-OV-3 ovarian
SN12C renal = system: SN12C renal
SNB-19 CNS = system: SNB-19 CNS
SNB-75 CNS = system: SNB-75 CNS
SNB-78 CNS = system: SNB-78 CNS
SR leukemia = system: SR leukemia
SW-620 colon = system: SW-620 colon
U251 CNS = system: U251 CNS
UACC-257 melanoma = system: UACC-257 melanoma
UACC-62 melanoma = system: UACC-62 melanoma
UO-31 renal = system: UO-31 renal

Measured: TGI

O=C1C=C(c2ccccc2)NC1(c1ccccc1)c1cc(-c2ccccc2)[nH]c1-c1ccccc1 (stereo not drawn)
0.586 µM: RXF 393 renal
19 µM: HOP-62 NSCLC
> 100 µM: all other assays above
